Measured values as given in patent publication US20060223812A1, “Treating neurodegenerative conditions” (MAX-PLANCK-GESELLSCHAFT ZUR FORDERUNGDER WISSENSCHAFTEN, …, priority 2004, published 2006).
Like-named read-outs stand apart in the source and are kept apart here.

How the values were obtained:
[1] = target: T1, htau23 (Homo sapiens, UniProt P10636); test: Thioflavine S assay, inhibition of PHF formation, htau23; type: biochemical; details: for inhibition at 60 µM / inhibition at 0.1 µM: read-out: inhibition of PHF formation, htau23; for effect on PHF formation, htau23: low concentration
T1 construct: made in house; host or cells: E. coli
T1 sequence (P10636 1-352 isoform P10636-2): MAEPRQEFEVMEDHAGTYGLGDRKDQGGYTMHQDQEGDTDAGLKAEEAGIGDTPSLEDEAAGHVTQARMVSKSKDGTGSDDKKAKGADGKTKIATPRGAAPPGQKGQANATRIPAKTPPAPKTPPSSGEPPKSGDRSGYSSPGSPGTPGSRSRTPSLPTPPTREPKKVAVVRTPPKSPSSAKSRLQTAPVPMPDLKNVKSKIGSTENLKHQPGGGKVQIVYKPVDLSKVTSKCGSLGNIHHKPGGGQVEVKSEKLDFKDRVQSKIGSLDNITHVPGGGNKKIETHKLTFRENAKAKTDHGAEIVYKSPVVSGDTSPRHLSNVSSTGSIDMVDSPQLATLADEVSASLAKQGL
Experimental: Assembly of synthetic PHFs of tau protein (K19, 10 μM) was performed at 37° C. in the presence of polyanions (heparin; 5 μM) in 50 mM NH4Ac, pH 6.8. Assembly was followed either qualitatively by electron microscopy or quantitatively by fluorescence assay using thioflavine S. PHF-formation of tau isoforms htau23 and htau24 was carried out in PBS-buffer pH 7.4, 50 μM protein, and 12.5 μM heparin. The samples were incubated at 50° C. for 10 days. In the case of htau24 and K18, DTT was added at a final concentration of 1 mM each day in order to avoid intra-molecular disulfide crosslinking (Barghorn et al., 2000).

[2] = target: T2, PHFs from K18 (Homo sapiens, UniProt P10636); test: Thioflavine S assay, depolymerisation of pre-formed PHFs, K18; type: biochemical
T2 construct: made in house; host or cells: E. coli
T2 sequence (P10636 561-685 limits assumed): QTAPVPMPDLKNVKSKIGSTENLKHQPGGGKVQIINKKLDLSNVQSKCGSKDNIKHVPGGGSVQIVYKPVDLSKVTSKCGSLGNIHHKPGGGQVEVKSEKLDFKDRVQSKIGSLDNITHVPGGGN
Text: (§1) The ThS assay was used to analyse the ability of the five compounds (see Example 4) to depolymerise pre-formed PHFs made from the repeat domain constructs K19 and K18 as well as from isoforms htau23 and htau24, containing 3 or 4 repeats, respectively.
The depolymerisation of K19 filaments (FIG. 4A) followed a similar concentration dependence as the inhibition experiment, with consistently similar or slightly higher DC50 values than the corresponding IC50 concentrations (Table 2). The ratios of IC50/DC50 range from 0.2-1.2. […] Here, too, the concentration dependence for K19 was steeper than for K18 (compare FIGS. 4A, B), similar to that of assembly inhibition (FIGS. 2A, B).
(§2) Tau constructs and isoforms K19, K18, hTau23, hTau24 (10 μM) were first aggregated into PHFs for 48 hours in the presence of 2.5 μM heparin (except K18/ΔK280) and the polymers separated from the soluble tau by centrifugation of 1 h at 100,000 g, redissolved and then exposed to the inhibitors overnight at 37° C. at the indicated concentrations (range 0.001-200 μM). The compounds are capable of disassembling PHFs with varying efficiencies (see Table 2).

[3] = target: T3, PHFs from htau24 (Homo sapiens, UniProt P10636); test: Thioflavine S assay, depolymerisation of pre-formed PHFs, htau24; type: biochemical
T3 construct: made in house; host or cells: E. coli
T3 sequence (P10636 1-383 isoform P10636-6): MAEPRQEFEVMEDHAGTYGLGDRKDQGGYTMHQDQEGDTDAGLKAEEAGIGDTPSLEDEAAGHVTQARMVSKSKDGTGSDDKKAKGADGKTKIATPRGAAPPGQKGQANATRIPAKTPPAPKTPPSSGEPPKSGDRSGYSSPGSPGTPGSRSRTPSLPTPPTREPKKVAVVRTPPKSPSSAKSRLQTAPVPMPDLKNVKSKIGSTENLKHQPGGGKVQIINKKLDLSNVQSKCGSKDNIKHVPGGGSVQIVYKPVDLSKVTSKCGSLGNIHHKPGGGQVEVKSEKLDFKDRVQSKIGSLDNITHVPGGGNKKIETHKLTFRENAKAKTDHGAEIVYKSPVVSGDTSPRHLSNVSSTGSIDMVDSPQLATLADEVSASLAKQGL
Experimental: as §1
as §2, with “μM).” for “μM). The compounds are capable of disassembling PHFs with varying efficiencies (see Table 2).”

[4] = system: K18/Y310W; test: Tryptophan fluorescence inhibition assay, K18/Y310W; type: biochemical, human; details: 60 μM compound
Text: In order to exclude a possible distortion of the data by the dye the results of the ThS assays can be confirmed by a tryptophan fluorescence assay (Li et al., 2002). It allows the detection of the molecular environment of a tryptophan introduced instead of tyrosine 310 whose emission maximum is sensitive to the burial in a more hydrophobic surrounding upon PHF formation. Therefore the mutants K19/Y310W (FIG. 1I) and K18/Y310W (FIG. 1H) that contain a single tryptophan within the core of the PHF structure were created. In the soluble protein the emission maximum lies at ˜354 nm, whereas it shifts to 340 nm upon PHF formation (FIG. 3A, compare first and second entry). The emission peak can be shifted back by incubation at high concentrations of GuHCl which is due to the disassembly of the PHFs (FIG. 3A, fourth entry).
The fluorescence experiments were performed on a Spex Fluoromax spectrophotometer (Polytec, Waldbronn, Germany) using 3 mm×3 mm micro cuvettes from Hellma (Mühlheim, Germany) with 20 μl sample volumes. A tryptophan emission spectrum scans from 300 to 450 nm at fixed excitation wavelength of 290 nm. The slit widths were 5 nm, the integration time was 0.25 second, and the photomultiplier voltage was 950 V. For fluorescence inhibition assay, 60 μM compounds were incubated with K19/Y310W construct (10 μM) or K18/ΔK280/Y310W and heparin (2.5 μM) in PBS, pH 7.4 three days at 37° C.
In the Trp fluorescence assay the inhibition of PHF assembly becomes apparent if the emission maximum of Trp310 remains higher than that of the control without any compound, because Trp310 remains in a more solvent-accessible hydrophilic environment. The three repeat tau construct K19 (at 10 μM) was prevented from polymerisation by about 90% by the presence of all compounds at a concentration, of 60 μM (FIG. 3A, note that entries 5-9 retain their values around 354 nm, similar to the control #1). […] The internal ranking stays roughly the same as with K18; PHF005 (#9) is the best, PHF016 (#8) the worst inhibitor. […] The apparent degrees of inhibition differ somewhat between the ThS fluorescence and the intrinsic Trp fluorescence assays, but this may be due to the different origins of the signal. In the ThS assay the dye has to bind to the filaments, which requires a minimal length of the fibres. The tryptophan fluorescence assay depends on the local surrounding of the residue and is therefore less dependent on the length of the filaments.
(A-C) fluorescence emission maximum of the single tryptophan W310 inserted by site-directed mutagenesis into tau constructs K19 (FIG. 3A), K18 (FIG. 3B) and K18/ΔK280 (FIG. 3C). Fully solvent-accessible Trp has an emission maximum at ˜355 nm, a blue-shift to lower wavelengths is an indicator of PHF aggregation. […]

[5] = ThS fluorescence, read-out: Inhibition of tau aggregation IC50, hTau23
[6] = ThS fluorescence, overnight 37° C., read-out: Depolymerisation of PHFs DC50, K18
[7] = ThS fluorescence, pre-formed PHFs; read-out: Depolymerisation of PHFs DC50, hTau24

SMILES: O=C(c1ccccc1)c1ccc(O)c(O)c1O [PHF005, 1-Phenyl-1-(2,3,4-trihydroxy-phenyl)-methanone]
- inhibition at 60 µM ([1]; 60 μM compound): ~50%
- IC50 [1, 5]: 1.1 µM
- effect on PHF formation, htau23 [1]: only a slight effect
- DC50 [2, 6]: 20.8 µM
- DC50 [3, 7]: 10.8 µM

SMILES: O=C1c2ccc(O)c(O)c2C(=O)c2c(O)ccc(O)c21 [PHF016, 1,2,5,8-Tetrahydroxy-anthraquinone]
- inhibition at 60 µM ([1]; 60 μM compound): ~50%
- IC50 [1, 5]: 1 µM
- effect on PHF formation, htau23 [1]: only a slight effect
- DC50 [2, 6]: 7.3 µM
- DC50 [3, 7]: 39.2 µM
- inhibition of PHF formation, K18/Y310W, Trp fluorescence [4]: 25%

SMILES: COc1cccc2c1C(=O)c1c(O)c3c(c(O)c1C2=O)CC(O)(C(C)=O)CC3OC1CC(N)C(O)C(C)O1 (centres unmarked) [Daunorubicin, 8-Acetyl-10-(4-amino-5-hydroxy-6-methyl-tetrahydro-pyran-2-yloxy)-6,8,11-trihydroxy-1-methoxy-7,8,9,10-tetrahydro-naphthacene-5,12-dione, reference compound]
- IC50 [1, 5]: 0.1 µM
- inhibition at 0.1 µM [1]: ~50%
- inhibition at 60 µM [1]: ~90%
- DC50 [2, 6]: 4 µM
- depolymerisation of htau24 filaments [3]: only weak PHF breakers
- DC50 [3, 7]: > 60 µM
- inhibition of PHF formation, K18/Y310W, Trp fluorescence [4]: about 70%

SMILES: Cc1cc(O)c2c(c1)C(=O)c1cc(O)cc(O)c1C2=O [Emodin, 1,3,8-Trihydroxy-6-methyl-anthraquinone]
- inhibition at 0.1 µM ([1]; 0.1 μM compound): ~50%
- inhibition at 60 µM ([1]; 60 μM compound): ~90%
- IC50 [1, 5]: 0.2 µM
- DC50 [2, 6]: 2 µM
- depolymerisation of htau24 filaments [3]: only weak PHF breakers
- DC50 [3, 7]: > 60 µM
- inhibition of PHF formation, K18/Y310W, Trp fluorescence [4]: about 70%

SMILES: COc1cccc2c1C(=O)c1c(O)c3c(c(O)c1C2=O)CC(O)(C(=O)CO)CC3OC1CC(N)C(O)C(C)O1 (centres unmarked) [Adriamycin, 10-(4-Amino-5-hydroxy-6-methyl-tetrahydro-pyran-2-yloxy)-6,8,11-trihydroxy-8-(2-hydroxyethanoyl)-1-methoxy-7,8,9,10-tetrahydro-naphthacene-5,12-dione, reference compound]
- IC50 [1]: 0.2 µM
- DC50 ([2]; read-out: Depolymerisation of PHFs DC50, K18, ThS fluorescence, overnight 37° C.): 4.3 µM
- DC50 ([3]; read-out: Depolymerisation of PHFs DC50, hTau24; ThS fluorescence, pre-formed PHFs): > 60 µM
- inhibition of PHF formation, K18/Y310W, Trp fluorescence [4]: about 70%
